System: blood glucose
Experiment: Blood sugar tests: hypoglycaemic activity in fasting guinea pigs, i.p.
Format: in vivo, guinea pig
Conditions: Cavia porcellus, ip, read-out: Threshold i.p. Dosage for Hypoglycaemic Activity in Testing Guinea Pigs
Description: In order to illustrate the pharmacological properties of the compounds according to the invention, the blood sugarlowering effect and the monoaminoxidase (MAO) inhibition were determined and compared with some corresponding hydrazines. […] Metabolically healthy, cross-bred, fasting guinea pigs were injected with the substances as aqueous solutions of their sodium salts, i.p. A control group receives equivalent amounts of an isotonic NaCl solution. Directly before, as well as in hourly intervals up to the fourth hour after the […], 10 μl blood are taken from an ear border vein and the blood glucose is determined by means of the trouble-free and specific hexokinase technique.

Compound	minimal effective dose
NNCCc1ccccc1 [Phenelzine, 2-phenylethyl-hydrazine, reference compound]	≥ 50 mg/kg
CC(=NNCCCc1ccccc1)C(=O)[O-].[Na+] [Sodium 2-(3-phenylpropylhydrazono)-propionate]	35 mg/kg
CC(=NNCC=Cc1ccccc1)C(=O)[O-].[Na+] [Sodium-2-(cinnamylhydrazono)-propionate, sodium 2-(cinnamylhydrazono)-propionate]	15 mg/kg
COc1ccccc1CCNN=C(C)C(=O)[O-].[Na+] [sodium 2-(2-methoxyphenethylhydrazono)-propionate]	25 mg/kg
CC(=NNCCc1cccc(Br)c1)C(=O)[O-].[Na+] [sodium 2-(3-bromophenethylhydrazono)-propionate]	25 to 50 mg/kg

Same assay, conditions: Cavia porcellus, ip; fasting guinea pigs, i.p., aqueous solutions of sodium salts; dosage which significantly lowers blood glucose versus control, up to fourth hour; read-out: Threshold i.p. Dosage for Hypoglycaemic Activity in Testing Guinea Pigs

Compound	minimal effective dose
CC(=NNCCc1ccccc1C)C(=O)O [2-(2-methylphenethylhydrazono)-propionic acid]	50 mg/kg
CC(=NNCCc1ccc(Cl)cc1)C(=O)O [2-(4-chlorophenethylhydrazono)-propionic acid]	25 mg/kg
CC(=NNCCc1ccc(F)cc1)C(=O)O [2-(4-fluorophenethylhydrazono)-propionic acid]	25 mg/kg
COc1ccc(CCNN=C(C)C(=O)O)cc1 [2-(4-methoxyphenethylhydrazono)-propionic acid]	50 mg/kg
CC(=NNCCc1ccccc1)C(N)=O [2-(phenethylhydrazono)-propionamide]	50 mg/kg
CC(=NNCCc1ccccc1)C(=O)O [2-(phenethylhydrazono)-propionic acid, 2-(Phenethylhydrazono)-propionic acid]	15 mg/kg
CC(=NNCCc1ccc(C)cc1)C(=O)O [2-[2-(p-tolyl)-ethylhydrazono]-propionic acid]	50 mg/kg
CCOC(=O)C(C)=NNCCc1ccccc1 [Ethyl 2-(phenethylhydrazono)-propionate]	25 mg/kg
COC(=O)C(C)=NNCCc1ccccc1 [Methyl 2-(phenethylhydrazono)-propionate]	50 mg/kg

Same assay, conditions: fasting guinea pigs, i.p., aqueous solutions of sodium salts; dosage which significantly lowers blood glucose versus control, up to fourth hour

Compound	Threshold i.p. Dosage for Hypoglycaemic Activity in Testing Guinea Pigs
3-phenyl-propen-2-yl--hydrazin-hydrochloride [reference compound]	> 50 mg/kg
sodium 2-(β-methylcinnamylhydrazono)-propionate	10 mg/kg

System: not given
Experiment: not given
Conditions: in high dosages; literature; cited from earlier work

Compound	hypoglycaemic activity
NNCCc1ccccc1 [Phenelzine, 2-phenylethyl-hydrazine, reference compound]	can be hypoglycaemically active in high dosages
CC(NN)c1ccccc1 (centres unmarked) [mebanazine, 1-phenylethyl-hydrazine]	can be hypoglycaemically active in high dosages

System: MAO
Experiment: Measuring of the MAO activity in vitro (kynuramine substrate, unrefined guinea pig liver or brain preparation)
Format: biochemical
Conditions: 360 mμ, read-out: Concentration for 50% MAO Inhibitions
Description: In order to illustrate the pharmacological properties of the compounds according to the invention, the blood sugarlowering effect and the monoaminoxidase (MAO) inhibition were determined and compared with some corresponding hydrazines.
An unrefined MAO preparation is obtained by comminution of guinea pig liver or brain with the Ultraturrax and subsequent centrifuging at about 10,000 g. The liquid contains the MAO portion dissolved in the cytoplasm and is used for the activity measurements. As substrate there is used kynuramine whose oxidative decomposition by the MAO can be directly observed at 360 m μ in the photometer. The extinction decrease per time unit is a measure of the enzyme activity.

Compound	IC50
CC(=NNCCc1ccccc1)C(=O)O [2-(phenethylhydrazono)-propionic acid, 2-(Phenethylhydrazono)-propionic acid]	600 µM
NNCCc1ccccc1 [Phenelzine, 2-phenylethyl-hydrazine, reference compound]	0.4 µM

Source: patent US4136196A, “Hypoglycaemically active 2-(phenylalkyl- or -alkenyl hydrazono)-propionic acid derivatives” (Boehringer Mannheim GmbH, priority 1976, dated 1979)
